Results published in ChEMBL document CHEMBL1143748, “'Bridged' stilbene derivatives as selective cyclooxygenase-1 inhibitors” (Bioorg Med Chem, 2007).

Experiments:
[1] = Selectivity for ovine COX1 over human recombinant COX2
[2] = Relaxing effect on guinea pig arteria pulmonalis ring assessed as reduction of force of contraction at 100 uM; format: functional, Cavia porcellus; parameters: scale not given: the % may be the effect or the level left
[3] = target: T1, Prostaglandin G/H synthase 2 (Homo sapiens, UniProt P35354); experiment: Inhibition of human recombinant COX2 by measuring PGE2
T1 sequence (P35354 whole entry): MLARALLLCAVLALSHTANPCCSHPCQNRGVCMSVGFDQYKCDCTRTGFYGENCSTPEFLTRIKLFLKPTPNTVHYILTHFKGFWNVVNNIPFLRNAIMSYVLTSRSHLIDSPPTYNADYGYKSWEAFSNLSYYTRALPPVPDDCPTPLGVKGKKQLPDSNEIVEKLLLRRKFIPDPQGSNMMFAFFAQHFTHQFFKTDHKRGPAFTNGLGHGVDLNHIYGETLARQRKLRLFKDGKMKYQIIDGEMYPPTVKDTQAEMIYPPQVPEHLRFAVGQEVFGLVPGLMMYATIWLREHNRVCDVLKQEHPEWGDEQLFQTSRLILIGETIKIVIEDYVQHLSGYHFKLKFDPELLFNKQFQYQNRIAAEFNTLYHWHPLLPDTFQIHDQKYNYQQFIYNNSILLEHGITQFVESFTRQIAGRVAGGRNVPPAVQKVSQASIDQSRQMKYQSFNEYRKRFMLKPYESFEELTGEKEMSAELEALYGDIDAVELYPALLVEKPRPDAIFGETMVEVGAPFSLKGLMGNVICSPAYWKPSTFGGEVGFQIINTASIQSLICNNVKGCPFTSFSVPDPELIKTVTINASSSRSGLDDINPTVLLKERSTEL

[4] = target: T2, Prostaglandin G/H synthase 1 (Ovis aries, UniProt P05979); experiment: Inhibition of ovine COX1 by measuring PGE2
T2 sequence (P05979 whole entry): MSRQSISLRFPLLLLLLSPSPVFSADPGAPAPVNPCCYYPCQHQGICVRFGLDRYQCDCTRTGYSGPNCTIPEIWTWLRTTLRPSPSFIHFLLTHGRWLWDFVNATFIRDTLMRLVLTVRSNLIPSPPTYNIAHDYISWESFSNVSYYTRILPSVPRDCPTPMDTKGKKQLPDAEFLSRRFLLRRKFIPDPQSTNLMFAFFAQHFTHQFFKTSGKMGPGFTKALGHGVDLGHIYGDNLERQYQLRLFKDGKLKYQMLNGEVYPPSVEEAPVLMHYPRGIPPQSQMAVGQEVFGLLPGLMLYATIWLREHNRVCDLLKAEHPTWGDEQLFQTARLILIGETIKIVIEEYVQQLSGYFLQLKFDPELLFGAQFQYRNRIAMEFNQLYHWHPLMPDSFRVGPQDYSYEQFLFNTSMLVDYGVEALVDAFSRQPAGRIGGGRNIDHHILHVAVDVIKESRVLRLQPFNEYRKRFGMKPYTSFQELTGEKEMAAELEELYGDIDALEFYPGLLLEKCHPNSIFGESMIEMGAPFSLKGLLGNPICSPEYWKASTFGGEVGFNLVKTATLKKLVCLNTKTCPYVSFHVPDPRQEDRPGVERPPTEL

Aorta = experiment: Relaxing effect on guinea pig aorta ring assessed as reduction of force of contraction at 100 uM; format: functional, Cavia porcellus; parameters: scale not given: the % may be the effect or the level left
Ileum = experiment: Relaxing effect on guinea pig terminal ileum ring assessed as reduction of force of contraction at 100 uM; format: functional, Cavia porcellus; parameters: scale not given: the % may be the effect or the level left

SMILES | Ratio IC50 [1] | IC50 [3] [nM] | IC50 [4] [nM] | Activity [2] [%] | Activity (Aorta) [%] | Activity (Ileum) [%]
Oc1ccc(/C=C/c2cc(O)cc(O)c2)cc1 [RESVERATROL] | – | – | 535 | -53.56 | -55.15 | -64.77
C1=C(c2ccc3c(c2)OCO3)CCc2ccccc21 | – | > 100000 | > 100000 | – | – | –
C1=C(c2ccc3c(c2)OCO3)Cc2ccccc21 | > 7.8 | > 100000 | 12800 | -19.82 | -28.08 | -51.74
COc1ccc2c(c1)CCC(c1ccc(OC)c(OC)c1OC)=C2 | > 6670 | > 100000 | 15 | – | – | –
COc1ccc(C2=Cc3ccccc3CC2)cc1OC | > 1.63 | > 100000 | 61100 | -41.45 | -15.97 | -45.34
COc1ccc2c(c1)CCC(c1ccc(OC)c(OC)c1)=C2 | 0.079 | 30 | 380 | – | – | –

Continued, in another order:

Ratio IC50 [1] | IC50 [3] [nM] | IC50 [4] [nM] | SMILES | Activity [2] [%] | Activity (Aorta) [%] | Activity (Ileum) [%]
44.3 | 1330 | 30 | COc1ccc(C2=Cc3ccccc3C2)c(OC)c1OC | -11.92 | -3.45 | -35.94
1.38 | 660 | 480 | COc1ccc(C2=Cc3ccccc3CC2)c(OC)c1OC | – | – | –
135 | 62300 | 460 | COc1ccccc1C1=Cc2ccccc2C1 | -26.08 | -35.72 | -40.89
